Test results as given in US12569453B2, “Use of tapinarof for the treatment of atopic dermatitis” (Dermavant Sciences GmbH, priority 2018, dated 2026).

Assays:
[1] = system: adult subjects with psoriasis; experiment: Phase II/2b psoriasis study: safety and tolerability; format: in vivo, human
Description: Safety was assessed by the monitoring and recording of all AEs and serious adverse events (SAEs); evaluation of local (application site) tolerability; monitoring of hematology (including peripheral blood Immunophenotyping and Immunoglobulins), clinical chemistry, and vital signs; and the performance of ECGs and physical examinations.
Safety assessments included incidence, frequency and severity of AEs, evaluation of local (application-site) tolerability, clinical laboratory parameters, vital signs, electrocardiogram changes, and physical examinations. An unblinded Independent Data Monitoring Committee monitored patient safety. Investigators assessed the overall degree of irritation at the application sites using a scale of 0 (no irritation) to 4 (very severe/strong reaction) at each study visit. A score of 3 or 4 was reported as an AE. Study treatment was discontinued if a score of 4 was noted. Subject-reported tolerability was assessed using a 5-point tolerability scale of 0 (none) to 4 (strong/severe) to assess the presence and degree of burning/stinging and itching at the application site within 2 hours following application of tapinarof or vehicle.

[2] = minipig 28 day toxicology, formulation F (NOAEL); format: in vivo; conditions: 3% [60 mg/kg/day]
[3] = Phase II psoriasis study: plasma PK samples; format: in vivo, human; conditions: of 860 samples from patients receiving an active dose
Description: Pharmacokinetics: Sparse PK sampling throughout the duration of the study was intended to be used to develop a population PK model and to estimate population PK parameters (i.e., apparent clearance [CL/F], apparent volume of distribution [V/F]) of systemic exposure, according to the Time and Events Table. Plasma analysis was performed under the management of Bioanalysis, Immunogenicity & Biomarkers, IVIVT, PTS, GSK.
The bioanalytical method used to support the study was a fully validated Liquid Chromatography-Tandem Mass Spectrometry (LC-MS/MS) method in accordance with FDA/EU/MHLW guidelines [US Department of Health and Human Services, Food and Drug Administration Draft Guidance for Industry: Bioanalytical Method Validation, 2013] [European Medicines Agency Guideline on Bioanalytical Method Validation, 2011] [Japanese Ministry of Health Guideline on Bioanalytical Method Validation in Pharmaceutical Development, 2013].

[4] = rat subcutaneous 13-week toxicology study (NOAEL) and predicted safety margin; conditions: in vivo, sc, rat subcutaneous 3 mg/kg/day, read-out: NOAEL AUC(0-24)
Text: The predicted maximum systemic exposure to Tapinarof in this study was expected to be lower than the no observed adverse effects level (NOAEL) identified in nonclinical toxicology studies.

[5] = all cases in active treatment groups
[6] = pooled active treatment groups (n=152)
[7] = pooled tapinarof groups (n=152)

For CC(C)c1c(O)cc(/C=C/c2ccccc2)cc1O [Tapinarof, 3,5-Dihydroxy-4-isopropyl-trans-stilbene], the Application-site dermatitis ([1]; 0.5% BID) was 0 n, the Dermatitis allergic ([1]; 0.5% BID) was 0 n and the Miliaria ([1]; 0.5% BID) was 0 n. It also gave a Urticaria ([1]; 0.5% BID) of 0 n, a headache ([1]; 0.5% BID) of 0 n and an Acne ([1]; 0.5% QD) of 0 n. The Dermatitis allergic ([1]; 0.5% QD) was 0 n, the “Serious TEAEs” value ([1]; 0.5% QD) was 0 n and the Urticaria ([1]; 0.5% QD) was 0 n. For the same compound, the Vomiting ([1]; 0.5% QD) was 0 n, the Miliaria ([1]; 1% BID) was 0 n and the Urticaria ([1]; 1% BID) was 0 n. The Vomiting ([1]; 1% BID) was 0 n, the Nasopharyngitis ([1]; 1% BID, listed as GSK2894512) was 1 n and the folliculitis ([1]; 1% BID, listed as GSK2894512) was 8 n. For the same compound, the Acne ([1]; 1% QD) was 0 n, the Dermatitis allergic ([1]; 1% QD) was 0 n and the Nasopharyngitis ([1]; 1% QD) was 0 n. The Vomiting ([1]; 1% QD) was 0 n, the “folliculitis, median duration (resolved events)” value ([1]; active treatment groups) was 55 days and the “folliculitis, median time to onset” value ([1]; active treatment groups) was 26 days. For the same compound, the “headache, median duration” value ([1]; active treatment groups) was 3 days, the “headache, median time to onset” value ([1]; active treatment groups) was 2.5 days and the “nasopharyngitis, median duration” value ([1]; active treatment groups) was 12 days. The “nasopharyngitis, median time to onset” value ([1]; active treatment groups) was 13 days, the “contact dermatitis, median duration” value [1, 5] was 32 days and the “contact dermatitis, median time to onset” value [1, 5] was 30 days. The “subjects with serious TEAEs” value ([1]; all in Tapinarof treatment groups, none treatment-related) was 7 subjects, the Nasopharyngitis [1, 6] was 5% and the Vomiting [1, 6] was 2%. The headache [1, 6] was 4%, the “subjects permanently discontinuing treatment due to TEAEs” value [1, 6] was 10% and the “subjects with TEAEs” value [1, 6] was 56%. For the same compound, the “subjects with mild TEAEs” value [1, 6] was 27%, the “subjects with moderate TEAEs” value [1, 6] was 22% and the “subjects with severe TEAEs” value [1, 6] was 7%. The “subjects with treatment-related TEAEs” value [1, 6] was 22%, the “treatment-related monocyte count decreased” value [1, 6] was 1% and the contact dermatitis [1, 7] was 8%. The folliculitis [1, 7] was 13%, the treatment-related folliculitis [1, 7] was 10% and the “subjects with TEAEs considered related to treatment” value ([1]; treatment groups pooled) was 34 subjects. For the same compound, the “subjects with at least one AE” value ([1]; treatment groups pooled) was 89 subjects, the “subjects with at least one TEAE” value ([1]; treatment groups pooled) was 85 subjects and the “gender averaged NOAEL Cmax” value [2] was 0.84 ng/mL. For the same compound, the “plasma samples below the Lower Limit of Quantitation (LLQ)” value [3] was 649 samples, the plasma samples quantified [3] was 157 samples and the AUC(0-t) [4] was 99 ng·h/mL.
